In the NIST ThermoML archive (doi:10.1021/je100679s):

Assay: xn = mol fraction of the nth substance listed
Details: 101 kPa, Liquid; for electrical conductivity: DDS-307 conductivity meter

CCCCCCn1cc[n+](C)c1C.O=S(=O)([N-]S(=O)(=O)C(F)(F)F)C(F)(F)F + COC(=O)OC
Details | electrical conductivity, 298.15 K [S/m] | electrical conductivity, 303.15 K [S/m] | electrical conductivity, 308.15 K [S/m] | electrical conductivity, 313.15 K [S/m] | mass density, 293.15 K [kg/m3] | mass density, 298.15 K [kg/m3] | mass density, 303.15 K [kg/m3] | mass density, 308.15 K [kg/m3] | mass density, 313.15 K [kg/m3]
x1 = 0.0466 | 0.34 | 0.378 | 0.416 | 0.454 | 1120.02 | 1113.88 | 1107.71 | 1101.52 | 1096.1
x1 = 0.0774 | 0.579 | 0.649 | 0.718 | 0.788 | 1145.97 | 1140.01 | 1134.13 | 1128.2 | 1123
x1 = 0.1154 | 0.755 | 0.82 | 0.884 | 0.949 | 1173.26 | 1167.46 | 1161.84 | 1156.12 | 1151.09
x1 = 0.1633 | 0.839 | 0.893 | 0.947 | 1 | 1201.7 | 1195.92 | 1190.53 | 1185.04 | 1180.2
x1 = 0.2269 | 0.813 | 0.862 | 0.91 | 0.959 | 1231.14 | 1225.5 | 1220.22 | 1214.85 | 1210.16
x1 = 0.3131 | 0.631 | 0.689 | 0.751 | 0.812 | 1261.37 | 1255.94 | 1250.93 | 1245.85 | –
x1 = 0.4385 | 0.509 | 0.553 | 0.61 | 0.667 | 1292.48 | 1287.18 | 1282.32 | 1277.48 | –
x1 = 0.6368 | 0.23 | 0.296 | 0.361 | 0.433 | 1324.48 | 1319.32 | 1314.7 | 1310.14 | –
x1 = 0.7472 | 0.164 | 0.209 | 0.275 | 0.35 | 1337.22 | 1332.18 | 1327.65 | 1323.1 | –
x1 = 1 | 0.108 | 0.158 | 0.213 | 0.271 | 1358.19 | 1353.11 | 1348.71 | 1344.29 | –
